Test results taken from publication PMC6627609, “Targeting Quorum Sensing: High-Throughput Screening to Identify Novel LsrK Inhibitors” (International Journal of Molecular Sciences, 2019).
Structures can show the parent of a compound that is named as a salt.

What follows are molecules tested against LsrK (Salmonella typhimurium, UniProt Q8ZKQ6) (assay: biochemical). Settings: not given.
LsrK, sequence (Q8ZKQ6 whole entry): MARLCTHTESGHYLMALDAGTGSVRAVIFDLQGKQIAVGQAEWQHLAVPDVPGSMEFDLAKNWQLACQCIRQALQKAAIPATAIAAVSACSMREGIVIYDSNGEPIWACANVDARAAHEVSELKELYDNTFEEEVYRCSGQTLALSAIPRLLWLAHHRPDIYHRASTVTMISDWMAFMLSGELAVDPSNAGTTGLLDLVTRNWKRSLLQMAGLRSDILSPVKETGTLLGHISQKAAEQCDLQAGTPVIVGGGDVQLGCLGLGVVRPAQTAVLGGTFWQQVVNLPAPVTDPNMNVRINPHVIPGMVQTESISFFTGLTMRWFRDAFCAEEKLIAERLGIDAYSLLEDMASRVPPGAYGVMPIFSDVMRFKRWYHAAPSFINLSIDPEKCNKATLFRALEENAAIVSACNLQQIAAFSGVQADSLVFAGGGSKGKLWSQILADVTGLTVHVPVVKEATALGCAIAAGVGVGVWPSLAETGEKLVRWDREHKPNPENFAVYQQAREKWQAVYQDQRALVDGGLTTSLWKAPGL
Assay type: biochemical, S. typhimurium
`O=C(O)/C=C/C=C/c1ccc2c(c1)OCO2` [PIPERIC ACID] was tested, and the inhibition at 50 µM was 0%.
`O=C(/C=C/C=C/c1ccc2c(c1)OCO2)N1CCCCC1` [PIPERINE] gave an inhibition at 50 µM of 1%.
`O=C(O)c1ccc2c(c1)OCO2` [PIPERONYLIC ACID] showed an inhibition at 50 µM of 1%.
In the case of `CCn1cc(C(=O)O)c(=O)c2cnc(N3CCCC3)nc21` [PIROMIDIC ACID], the inhibition at 50 µM is reported as 19%.
For `O=C(O)[C@@H](O)[C@](O)(Cc1ccc(O)cc1)C(=O)O` [PISCIDIC ACID], the inhibition at 50 µM was 2%.
In the case of `CC(C)=CCc1c2c(c3occ(-c4ccc(O)c(O)c4)c(=O)c3c1O)C=CC(C)(C)O2` [POMIFERIN], the inhibition at 50 µM is reported as 2%.
Work on `C[n+]1ccccc1/C=N/O` [PRALIDOXIME CHLORIDE] yielded an inhibition at 50 µM of 1%.
With `O=C(C1CCCCC1)N1CC(=O)N2CCc3ccccc3C2C1` (stereo not shown) [PRAZIQUANTEL] the inhibition at 50 µM was 0%.
In the case of `CC(=O)OCC(=O)[C@@]1(O)CC[C@H]2[C@@H]3CCC4=CC(=O)C=C[C@]4(C)[C@H]3[C@@H](O)C[C@@]21C` [PREDNISOLONE ACETATE], the inhibition at 50 µM is reported as 0%.
`CC(=O)[C@H]1CC[C@H]2[C@@H]3CC=C4C[C@@H](OC(=O)CCC(=O)O)CC[C@]4(C)[C@H]3CC[C@]12C` [PREGNENOLONE SUCCINATE] was tested, and the inhibition at 50 µM was 4%.
`OC(CCN1CCCCC1)(c1ccccc1)c1ccccc1` [PRIDINOL METHANESULFONATE] was tested, and the inhibition at 50 µM was 1%.
`COc1cc(NC(C)CCCN)c2ncccc2c1` (stereo not shown) [PRIMAQUINE DIPHOSPHATE] was tested, and the inhibition at 50 µM was 89%.
Work on `COC(=O)[C@]1(C)CC[C@]2(C)CC[C@]3(C)C4=CC=C5C(=CC(=O)C(O)=C5C)[C@]4(C)CC[C@@]3(C)[C@@H]2C1` [PRISTIMERIN] yielded an inhibition at 50 µM of 7%.
Work on `OC(CCN1CCCC1)(c1ccccc1)C1CCCCC1` (stereo not shown) [PROCYCLIDINE HYDROCHLORIDE] yielded an inhibition at 50 µM of 0%.
In the case of `CN(C)CCCN1c2ccccc2Sc2ccccc21` [PROMAZINE HYDROCHLORIDE], the inhibition at 50 µM is reported as 3%.
Molecule `CC(C)c1cccc(C(C)C)c1O` [PROPOFOL] has an inhibition at 50 µM of 7%.
For `C=CC1=C(C)c2cc3[nH]c(cc4nc(cc5[nH]c(cc1n2)c(C)c5CCC(=O)O)C(CCC(=O)O)=C4C)c(C)c3C=C` [PROTOPORPHYRIN IX], the IC50 was 9 µM and the inhibition at 50 µM was 100%.
In the case of `CC1=CCc2c(cc3oc(C)cc(=O)c3c2O)OC1` [PTAEROXYLIN], the inhibition at 50 µM is reported as 1%.
`COc1ccc(C[C@H](N)C(=O)N[C@H]2[C@@H](O)[C@H](n3cnc4c(N(C)C)ncnc43)O[C@@H]2CO)cc1` [PUROMYCIN HYDROCHLORIDE] gave an inhibition at 50 µM of 0%.
`O=C1c2ccccc2C(=O)c2c(O)c(O)cc(O)c21` [PURPURIN] gave an inhibition at 50 µM of 45%.
`O=c1c(O)cccc2cc(O)c(O)c(O)c12` [PURPUROGALLIN] showed an inhibition at 50 µM of 89%.
With `CN1CCCN=C1/C=C/c1cccs1` [PYRANTEL PAMOATE] the inhibition at 50 µM was 101%.
`Cc1ncc(CSSCc2cnc(C)c(O)c2CO)c(CO)c1O` [PYRITINOL] showed an inhibition at 50 µM of 1%.
Work on `CC[C@@]1(O)C[C@H](O[C@H]2C[C@H](N(C)C)[C@H](O)[C@H](C)O2)c2c(cc3c(c2O)C(=O)c2c(O)ccc(O)c2C3=O)[C@H]1C(=O)OC` [PYRROMYCIN] yielded an inhibition at 50 µM of 1%.
Molecule `O=c1c(O)c(-c2ccc(O)c(O)c2)oc2cc(O)cc(O)c12` [QUERCETIN] has an inhibition at 50 µM of 22%.
Molecule `C[C@@H]1O[C@@H](Oc2c(-c3ccc(O)c(O)c3)oc3cc(O)cc(O)c3c2=O)[C@H](O)[C@H](O)[C@H]1O` [QUERCITRIN] has an inhibition at 50 µM of 2%.
Molecule `CCN(CC)CCCC(C)Nc1c2ccc(Cl)cc2nc2ccc(OC)cc12` (stereo not shown) [QUINACRINE HYDROCHLORIDE] has an inhibition at 50 µM of 3%.
`O=C(O)[C@]1(O)C[C@@H](O)[C@@H](O)[C@H](O)C1` [QUINIC ACID] was tested, and the inhibition at 50 µM was 0%.
`C=C[C@H]1CN2CC[C@H]1C[C@H]2[C@H](OC(=O)OCC)c1ccnc2ccc(OC)cc12` [QUININE ETHYL CARBONATE] was tested, and the inhibition at 50 µM was 3%.
`COCCCOc1ccnc(C[S+]([O-])c2nc3ccccc3[nH]2)c1C` (stereo not shown) [RABEPRAZOLE SODIUM] was tested, and the inhibition at 50 µM was 0%.
`O=C(c1ccc(OCCN2CCCCC2)cc1)c1c(-c2ccc(O)cc2)sc2cc(O)ccc12` [RALOXIFENE HYDROCHLORIDE] showed an inhibition at 50 µM of 0%.
For `CNC(=C[N+](=O)[O-])NCCSCc1ccc(CN(C)C)o1` [RANITIDINE], the inhibition at 50 µM was 1%.
`COC(=O)[C@H]1[C@H]2C[C@@H]3c4[nH]c5cc(OC)ccc5c4CCN3C[C@H]2C[C@@H](OC(=O)c2cc(OC)c(OC)c(OC)c2)[C@@H]1OC` [RESERPINE] was tested, and the inhibition at 50 µM was 1%.
`CC(=O)Oc1cccc(O)c1` [RESORCINOL MONOACETATE] gave an inhibition at 50 µM of 1%.
With `COc1ccc(/C=C/c2cc(O)cc(O)c2)cc1` [RESVERATROL 4'-METHYL ETHER] the inhibition at 50 µM was 2%.
In the case of `CC1=C(/C=C/C(C)=C/C=C/C(C)=C/CO)C(C)(C)CCC1` [RETINOL], the inhibition at 50 µM is reported as 0%.
`CCCCCCCCCCCCCCCC(=O)OC/C=C(C)/C=C/C=C(C)/C=C/C1=C(C)CCCC1(C)C` [RETINYL PALMITATE] was tested, and the inhibition at 50 µM was 15%.
Molecule `C[C@@H]1O[C@@H](O[C@H]2[C@H](Oc3cc(O)c4c(=O)cc(-c5ccc(O)cc5)oc4c3)O[C@H](CO)[C@@H](O)[C@@H]2O)[C@H](O)[C@H](O)[C@H]1O` [RHOIFOLIN] has an inhibition at 50 µM of 2%.
`COC1=C(O)C(=O)c2c(cc3oc(C(C)=O)c(O)c3c2O)C1=O` [RHO[…]] gave an inhibition at 50 µM of 22%.
For `NC(=O)c1ncn([C@@H]2O[C@H](CO)[C@@H](O)[C@H]2O)n1` [RIBAVIRIN], the inhibition at 50 µM was 5%.
Work on `CO[C@H]1/C=C/O[C@@]2(C)Oc3c(C)c(O)c4c(O)c(c(/C=N/N5CCN(C)CC5)c(O)c4c3C2=O)NC(=O)/C(C)=C\C=C\[C@H](C)[C@H](O)[C@@H](C)[C@@H](O)[C@@H](C)[C@H](OC(C)=O)[C@@H]1C` [RIFAMPIN] yielded an inhibition at 50 µM of 18%.
Work on `CO[C@H]1/C=C/O[C@@]2(C)Oc3c(C)c(O)c4c(O)c(c5c(nc6cc(C)ccn65)c4c3C2=O)NC(=O)/C(C)=C\C=C\[C@H](C)[C@H](O)[C@@H](C)[C@@H](O)[C@@H](C)[C@H](OC(C)=O)[C@@H]1C` [RIFAXIMIN] yielded an inhibition at 50 µM of 1%.
`Cc1nc2sccn2c(=O)c1CCN1CCC(=C(c2ccc(F)cc2)c2ccc(F)cc2)CC1` [RITANSERIN] was tested, and the inhibition at 50 µM was 3%.
With `CN(C)CCc1c[nH]c2ccc(Cn3cncn3)cc12` [RIZATRIPTAN BENZOATE] the inhibition at 50 µM was 1%.
`COc1ccc(-c2c(O)c3c(OC)c4c(cc3oc2=O)OC(C)(C)C=C4)cc1` [ROBUSTIC ACID] showed an inhibition at 50 µM of 111%.
With `COc1ccc(C2CNC(=O)C2)cc1OC1CCCC1` (stereo not shown) [ROLIPRAM] the inhibition at 50 µM was 1%.
`CN(C)[C@@H]1C(O)=C(C(=O)NCN2CCCC2)C(=O)[C@@]2(O)C(O)=C3C(=O)c4c(O)cccc4[C@@](C)(O)[C@H]3C[C@@H]12` [ROLITETRACYCLINE] was tested, and the inhibition at 50 µM was 5%.
`O=C(/C=C/c1ccc(O)c(O)c1)O[C@H](Cc1ccc(O)c(O)c1)C(=O)O` [ROSMARINIC ACID] showed an inhibition at 50 µM of 2%.
For `CC(C)c1nc(N(C)S(C)(=O)=O)nc(-c2ccc(F)cc2)c1/C=C/[C@@H](O)C[C@@H](O)CC(=O)O` [ROSUVASTATIN CALCIUM], the inhibition at 50 µM was 1%.
`CC[C@@H](C(=O)[C@@H](C)[C@@H](O)[C@H](C)[C@@H]1O[C@@H]([C@@H](CC)C(=O)O)CC[C@@H]1C)[C@H]1O[C@]2(C=C[C@@H](O)[C@]3(CC[C@@](C)([C@H]4CC[C@](O)(CC)[C@H](C)O4)O3)O2)[C@H](C)C[C@@H]1C` [SALINOMYCIN. SODIUM] showed an inhibition at 50 µM of 2%.
`C[n+]1cc2c3c(ccc2c2ccc4cc5c(cc4c21)OCO5)OCO3` [SANGUINARINE SULFATE] gave an inhibition at 50 µM of 84%.
`COc1ccc2c(c1)OC/C(=C\c1ccc(OC)c(O)c1)C2=O` [SAPPANONE A DIMETHYL ETHER] gave an inhibition at 50 µM of 2%.
`O=C(O)c1cn(-c2ccc(F)cc2)c2cc(N3CCNCC3)c(F)cc2c1=O` [SARAFLOXACIN HYDROCHLORIDE] showed an inhibition at 50 µM of 0%.
`COc1cc2ccc(=O)oc2cc1O` [SCOPOLETIN] showed an inhibition at 50 µM of 1%.
In the case of `CO[C@H]1C[C@H](O[C@@H]2/C(C)=C/C[C@@H]3C[C@@H](C[C@]4(CC[C@H](C)[C@@H](C5CCCCC5)O4)O3)OC(=O)[C@@H]3C=C(C)/C(=N/O)[C@H]4OC/C(=C\C=C\[C@@H]2C)[C@]43O)O[C@@H](C)[C@@H]1O` [SELAMECTIN], the inhibition at 50 µM is reported as 0%.
Work on `CC1CCC(NC(=O)N(CCCl)N=O)CC1` (stereo not shown) [SEMUSTINE] yielded an inhibition at 50 µM of 0%.
With `O=C(O)c1cc(O)c2c(c1)[C@H]([C@H]1c3cc(C(=O)O)cc(O)c3C(=O)c3c(O[C@@H]4O[C@H](CO)[C@@H](O)[C@H](O)[C@H]4O)cccc31)c1cccc(O[C@@H]3O[C@H](CO)[C@@H](O)[C@H](O)[C@H]3O)c1C2=O` [SENNOSIDE A] the inhibition at 50 µM was 0%.
For `O=C(O)C1=C[C@@H](O)[C@@H](O)[C@H](O)C1` [SHIKIMIC ACID], the inhibition at 50 µM was 1%.
`COc1cc(C2Oc3cc([C@H]4Oc5cc(O)cc(O)c5C(=O)[C@@H]4O)ccc3OC2CO)ccc1O` (stereo partly shown) [SILIBININ] showed an inhibition at 50 µM of 27%.
For `CCC(C)(C)C(=O)O[C@H]1C[C@@H](C)C=C2C=C[C@H](C)[C@H](CC[C@@H]3C[C@@H](O)CC(=O)O3)[C@H]21` [SIMVASTATIN], the inhibition at 50 µM was 3%.
For `CO[C@H]1C[C@@H]2CC[C@@H](C)[C@@](O)(O2)C(=O)C(=O)N2CCCC[C@H]2C(=O)O[C@H]([C@H](C)C[C@@H]2CC[C@@H](O)[C@H](OC)C2)CC(=O)[C@H](C)/C=C(\C)[C@@H](O)[C@@H](OC)C(=O)[C@H](C)C[C@H](C)/C=C/C=C/C=C/1C` [SIROLIMUS], the inhibition at 50 µM was 4%.

Same assay, conditions: 50 µM
In the case of `Cl.c1cnc(N2CCN(Cc3ccc4c(c3)OCO4)CC2)nc1` [PIRIBEDIL HYDROCHLORIDE], the “Inhibition (%)” value is reported as 3.
For `C[C@]12C=CC(=O)C=C1CC[C@@H]1[C@@H]2[C@@H](O)C[C@@]2(C)[C@H]1CC[C@]2(O)C(=O)COP(=O)([O-])[O-].[Na+].[Na+]` [PREDNISOLONE SODIUM PHOSPHATE], the “Inhibition (%)” value was 0.
For `CNCCCC1c2ccccc2C=Cc2ccccc21.Cl` [PROTRYPTYLINE HYDROCHLORIDE], the “Inhibition (%)” value was 1.
`O=c1cccc2ccc(O)c(O)c2c1O` [PYROGALLIN] was tested, and the “Inhibition (%)” value was 101.
For `C=C(C)CCCC(C)CCOC(C)=O` (stereo not shown) [RHODINYL ACETATE], the “Inhibition (%)” value was 0.
In the case of `Cc1cc2nc3c(=O)[nH]c(=O)nc-3n(C[C@H](O)[C@H](O)[C@H](O)COP(=O)([O-])O)c2cc1C.[Na+]` [RIBOFLAVIN 5-PHOSPHATE SODIUM], the “Inhibition (%)” value is reported as 1.
In the case of `O=P([O-])(O)C(O)(Cc1cccnc1)P(=O)(O)O.[Na+]` [RISEDRONATE SODIUM HYDRATE], the “Inhibition (%)” value is reported as 2.
With `CC(C)CC(N(C)C)C1(c2ccc(Cl)cc2)CCC1.Cl` (stereo not shown) [SIBUTRAMINE HYDROCHLORIDE] the “Inhibition (%)” value was 1.
